Laboratory results published in patent US20130143929A1, “FUNGICIDAL IMIDAZOLES” (EI DU PONT DE NEMOURS AND COMPANY, priority 2010, published 2013).
Marks after values point to notes of the source that are not given here.

Assays:
Format in all cases: in vivo
[1] = tested on: Blumeria graminis f. sp. tritici (also known as Erysiphe graminis f. sp. tritici, the causal agent of wheat powdery mildew); test: Test D: wheat powdery mildew, preventive spray on wheat seedlings, visual disease rating; conditions: wheat powdery mildew, preventive spray on wheat seedlings
Source text: (§1) General protocol for preparing test suspensions for Tests A-D: the test compounds were first dissolved in acetone in an amount equal to 3% of the final volume and then suspended at the desired concentration (in ppm) in acetone and purified water (50/50 mix by volume) containing 250 ppm of the surfactant Trem® 014 (polyhydric alcohol esters). The resulting test suspensions were then used in Tests A-D. Spraying a 200 ppm test suspension to the point of run-off on the test plants was the equivalent of a rate of 800 g/ha.
The test suspension was sprayed to the point of run-off on wheat seedlings. The following day the seedlings were inoculated with a spore dust of Blumeria graminis f. sp. tritici, (also known as Erysiphe graminis f. sp. tritici, the causal agent of wheat powdery mildew) and incubated in a growth chamber at 20° C. for 8 days, after which time visual disease ratings were made.
(§2) Results for Tests A-E are given in Table A. In the Table, a rating of 100 indicates 100% disease control and a rating of 0 indicates no disease control (relative to the controls). A dash (—) indicates no test results. An asterisk “*” next to the rating value indicates a 40 ppm test suspension was used.

[2] = tested on: Septoria tritici (the causal agent of wheat leaf blotch); test: Test B: wheat leaf blotch, preventive spray on wheat seedlings, visual disease rating; conditions: wheat leaf blotch, preventive spray on wheat seedlings
Source text: as §1
(§3) The test suspension was sprayed to the point of run-off on wheat seedlings. The following day the seedlings were inoculated with a spore suspension of Septoria tritici (the causal agent of wheat leaf blotch) and incubated in a saturated atmosphere at 24° C. for 48 h, and then moved to a growth chamber at 20° C. for 19 days, after which time visual disease ratings were made.
as §2

[3] = tested on: Puccinia recondite f. sp. tritici (the causal agent of wheat leaf rust); test: Test A: wheat leaf rust, preventive spray on wheat seedlings, visual disease rating; conditions: wheat leaf rust, preventive spray on wheat seedlings
Source text: as §1
as §3, with “Puccinia recondite f. sp.” for “Septoria”, “rust)” for “blotch)”, “20°” for “24°”, “24” for “48”, “7” for “19”
as §2

[4] = tested on: Botrytis cinerea (the causal agent of tomato Botrytis); test: Test C: tomato Botrytis, preventive spray on tomato seedlings, visual disease rating; conditions: tomato Botrytis, preventive spray on tomato seedlings
Source text: as §1
as §3, with “tomato” for “wheat”, “Botrytis cinerea” for “Septoria tritici”, “tomato Botrytis)” for “wheat leaf blotch)”, “20°” for “24°”, “24°” for “20°”, “3” for “19”
as §2

[5] = no asterisk (standard test suspension concentration, not 40 ppm)
[6] = asterisk: 40 ppm test suspension

Row | SMILES | Test D rating (100 = 100% disease control, 0 = no disease control relative to the controls) [1, 5] | Test B rating (100 = 100% disease control, 0 = no disease control relative to the controls) [2, 5] | Test A rating (100 = 100% disease control, 0 = no disease control relative to the controls) [3, 5] | Test C rating (100 = 100% disease control, 0 = no disease control relative to the controls) [4, 5] | Test D rating (100 = 100% disease control, 0 = no disease control relative to the controls) [1, 6] | Test B rating (100 = 100% disease control, 0 = no disease control relative to the controls) [2, 6] | Test A rating (100 = 100% disease control, 0 = no disease control relative to the controls) [3, 6] | Test C rating (100 = 100% disease control, 0 = no disease control relative to the controls) [4, 6]
1 | OC(c1ccc(Cl)cc1)c1c(Cl)nc(Cl)n1-c1c(F)cc(F)cc1Cl (racemic) [compound 39] | 99% | 100% | 100% | 99% | – | – | – | –
2 | OC(c1ccc(F)cc1F)c1c(Cl)nc(Cl)n1-c1c(F)cc(F)cc1Cl (racemic) [compound 40] | 100% | 100% | 100% | 100% | – | – | – | –
3 | OC(c1ccc(F)cc1Cl)c1c(Cl)nc(Cl)n1-c1c(F)cccc1Cl (racemic) [compound 41] | 100% | 100% | 100% | 100% | – | – | – | –
4 | OC(c1ccc(F)cc1Cl)c1c(Br)ncn1-c1ccc(F)cc1Cl (racemic) [compound 215] | – | – | – | – | 0* % | 85* % | 92* % | 55* %
5 | COc1ccc(-n2c(C)nc(Br)c2C(O)c2ccc(F)cc2Cl)c(OC)c1 (racemic) [compound 217] | – | – | – | – | 0* % | 0* % | 0* % | 42* %
6 | OC(c1ccc(F)cc1Cl)c1c(Br)nc(Cl)n1-c1ccc(F)cc1Cl (racemic) [compound 218] | – | – | – | – | 89* % | 100* % | 100* % | 100* %
7 | COc1ccc(C(O)c2c(C)nc(Cl)n2-c2ccc(Cl)cc2Cl)c(Cl)c1 (racemic) [compound 219] | – | – | – | – | 21* % | 100* % | 99* % | 98* %
8 | COc1ccc(C(O)c2c(C)nc(Cl)n2-c2c(F)cccc2F)c(C)c1 (racemic) [compound 220] | – | – | – | – | 97* % | 100* % | 100* % | 100* %
9 | COc1ccc(C(O)c2c(C)nc(Cl)n2-c2c(F)cccc2F)c(Cl)c1 (racemic) [compound 221] | – | – | – | – | 97* % | 100* % | 100* % | 99* %
10 | COc1ccc(C(O)c2c(Br)ncn2-c2c(F)cccc2Cl)c(C)c1 (racemic) [compound 222] | – | – | – | – | 0* % | 57* % | 91* % | 30* %
11 | COc1ccc(C(O)c2c(Br)nc(C)n2-c2c(F)cccc2Cl)c(C)c1 (racemic) [compound 224] | – | – | – | – | 100* % | 100* % | 100* % | 100* %
12 | Cc1cccc(C)c1-n1c(C)nc(Br)c1C(O)c1ccc(F)cc1Cl (racemic) [compound 225] | 0% | 83% | 89% | 37% | – | – | – | –
13 | Cc1cccc(C)c1-n1c(C)nc(Cl)c1C(O)c1ccc(F)cc1Cl (racemic) [compound 226] | 0% | 98% | 94% | 6% | – | – | – | –
14 | Cc1ncc(C(O)c2c(F)cc(F)cc2F)n1-c1c(Cl)cccc1Cl (racemic) [compound 227] | 0% | 83% | 84% | 40% | – | – | – | –
15 | COc1cc(C)c(C(O)c2c(Br)ncn2-c2ccc(F)cc2Cl)cc1Br (racemic) [compound 229] | – | – | – | – | 0* % | 36* % | 68* % | 0* %
16 | COc1ccc(C(O)c2c(Br)ncn2-c2ccc(F)cc2Cl)c(F)c1 (racemic) [compound 230] | – | – | – | – | 0* % | 50* % | 97* % | 99* %
17 | COc1ccc(C(O)c2c(Cl)nc(C)n2-c2c(F)cc(F)cc2Br)c(Cl)c1 (racemic) [compound 231] | – | – | – | – | 98* % | 100* % | 100* % | 99* %
18 | OC(c1ccc(F)cc1Cl)c1c(Br)nc(Br)n1-c1ccc(F)cc1Cl (racemic) [compound 233] | – | – | – | – | 72* % | 100* % | 100* % | 95* %
19 | COc1cc(F)c(C(O)c2c(Cl)ncn2-c2ccc(F)cc2Cl)c(F)c1 (racemic) [compound 234] | – | – | – | – | 43* % | 79* % | 99* % | 26* %
20 | COc1cc(F)c(C(O)c2c(Br)nc(Br)n2-c2ccc(F)cc2Cl)c(F)c1 (racemic) [compound 235] | – | – | – | – | 99* % | 100* % | 100* % | 100* %
21 | COc1ccc(C(O)c2c(Cl)nc(Cl)n2-c2ccc(F)cc2F)c(Cl)c1 (racemic) [compound 236] | – | – | – | – | 99* % | 100* % | 100* % | 100* %
22 | COc1ccc(C(O)c2c(Cl)nc(Br)n2-c2c(F)cccc2F)c(Cl)c1 (racemic) [compound 237] | – | – | – | – | 98* % | 100* % | 100* % | 100* %
